Reference: ChEMBL document CHEMBL1201862, “PubChem BioAssay data set” (2004)
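Where inhibition never reached the appropriate level, the endpoint shown equals the highest concentration tested. Otherwise, values were interpolated linearly from a five-concentration, 48-hour dose response in 96-well plates. Here, GI50 denotes the concentration required for 50% inhibition of growth.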 Activity calls are given as the source filed them. Cut-off read from the data, not from the text of the source: active = GI50 up to about 1.1 µM and inactive = higher.

Columns and labels:
Assay in all cases: inhibition of tumour cell growth, NCI panel, 48 h
[1] = test system: OVCAR-4
[2] = test system: BT-549
[3] = test system: NCI/ADR-RES
[4] = test system: UO-31
[5] = test system: SNB-19
[6] = test system: MOLT-4
[7] = test system: 786-0
[8] = test system: SK-MEL-5
[9] = test system: EKVX
[10] = test system: SK-OV-3
[11] = test system: TK-10
[12] = test system: ACHN
[13] = test system: A498
[14] = test system: Malme-3M
[15] = test system: COLO 205
[16] = test system: RXF 393
[17] = test system: MDA-N
[18] = test system: K562
[19] = test system: NCI-H23
[20] = test system: DU-145

SMILES	GI50 [1]	GI50 [2]	GI50 [3]	GI50 [4]	GI50 [5]	GI50 [6]	GI50 [7]	GI50 [8]	GI50 [9]	GI50 [10]	GI50 [11]	GI50 [12]	GI50 [13]	GI50 [14]	GI50 [15]	GI50 [16]	GI50 [17]	GI50 [18]	GI50 [19]	GI50 [20]
Cc1cc(C(C)(C)C)c(OCCCN2CCOCC2)c(C(C)(C)C)c1	15.9 µM (inactive)	17.5 µM (inactive)	17 µM (inactive)	18.3 µM (inactive)	17.3 µM (inactive)	17.1 µM (inactive)	17.3 µM (inactive)	15.9 µM (inactive)	17.9 µM (inactive)	20 µM (inactive)	19.3 µM (inactive)	17.4 µM (inactive)	18.9 µM (inactive)	20.1 µM (inactive)	15.7 µM (inactive)	16 µM (inactive)	18.1 µM (inactive)	16.6 µM (inactive)	17.5 µM (inactive)	17.1 µM (inactive)
CC(C)(CN1CCCCC1)C(=O)CC(SCCS(=O)(=O)O)c1ccccc1 (centres undefined)	17.6 µM (inactive)	15.3 µM (inactive)	13.4 µM (inactive)	12.1 µM (inactive)	17.5 µM (inactive)	11.3 µM (inactive)	11 µM (inactive)	16.3 µM (inactive)	14.1 µM (inactive)	55 µM (inactive)	16.9 µM (inactive)	16.9 µM (inactive)	14.9 µM (inactive)	12.7 µM (inactive)	13.6 µM (inactive)	10.8 µM (inactive)	16.3 µM (inactive)	2.7 µM (inactive)	> 10 µM (inactive)	11.2 µM (inactive)
CC1OC(OC2C(O[C@H]3CC[C@@]4(C)C(=CC[C@H]5[C@@H]6C[C@@H]7O[C@]8(CC[C@@H](C)CO8)[C@@H](C)[C@@H]7[C@@]6(C)CC[C@@H]54)C3)OC(CO)C(O)C2O)C(O)C(O)C1O (some centres undefined)	1.22 µM (inactive)	4.49 µM (inactive)	1.99 µM (inactive)	0.638 µM (active)	1.01 µM (active)	2.64 µM (inactive)	1.14 µM (inactive)	3.97 µM (inactive)	3.1 µM (inactive)	3.05 µM (inactive)	1.53 µM (inactive)	1.58 µM (inactive)	1.51 µM (inactive)	3.15 µM (inactive)	2.95 µM (inactive)	1.54 µM (inactive)	3.29 µM (inactive)	1.57 µM (inactive)	2.28 µM (inactive)	1.26 µM (inactive)
CN(C)CCNC(=O)c1cccc2ccc(-c3ccc(O)cc3)nc12	2.43 µM (inactive)	6.82 µM (inactive)	5.11 µM (inactive)	2.39 µM (inactive)	1.31 µM (inactive)	0.238 µM (active)	2.63 µM (inactive)	1.25 µM (inactive)	8.36 µM (inactive)	3.01 µM (inactive)	2.94 µM (inactive)	1.37 µM (inactive)	2.64 µM (inactive)	1.05 µM (active)	3.33 µM (inactive)	4.72 µM (inactive)	2.39 µM (inactive)	0.839 µM (active)	3.09 µM (inactive)	2.33 µM (inactive)
O=C1C=CC(=O)c2c1ccc1c3ccccc3n(CCCCCCCCCCCCn3c4ccccc4c4ccc5c(c43)C(=O)C=CC5=O)c21	> 100 µM (inactive)	> 100 µM (inactive)	> 100 µM (inactive)	> 100 µM (inactive)	> 100 µM (inactive)	49.9 µM (inactive)	> 65.8 µM (inactive)	> 100 µM (inactive)	> 100 µM (inactive)	> 100 µM (inactive)	> 100 µM (inactive)	> 100 µM (inactive)	> 100 µM (inactive)	> 100 µM (inactive)	> 100 µM (inactive)	> 100 µM (inactive)	> 100 µM (inactive)	> 72.4 µM (inactive)	> 100 µM (inactive)	> 100 µM (inactive)
CCn1c2ccccc2c2cc(NC(=O)c3c(C)nc(O)nc3NCCNCCO)ccc21	> 100 µM (inactive)	> 100 µM (inactive)	> 100 µM (inactive)	> 100 µM (inactive)	> 100 µM (inactive)	> 100 µM (inactive)	> 100 µM (inactive)	> 100 µM (inactive)	> 100 µM (inactive)	> 100 µM (inactive)	> 100 µM (inactive)	> 100 µM (inactive)	> 100 µM (inactive)	> 100 µM (inactive)	> 100 µM (inactive)	> 100 µM (inactive)	> 100 µM (inactive)	> 100 µM (inactive)	> 100 µM (inactive)	> 100 µM (inactive)
CCOC(=O)/C(C#N)=C/c1ccc2c(c1)CC1(C2)Cc2cc(CC)c(C(C)O)cc2C1 (centres undefined)	9.59 µM (inactive)	10.8 µM (inactive)	8.77 µM (inactive)	21.4 µM (inactive)	15.1 µM (inactive)	4.59 µM (inactive)	17.3 µM (inactive)	4.78 µM (inactive)	57.5 µM (inactive)	15.4 µM (inactive)	25.5 µM (inactive)	30.3 µM (inactive)	25.8 µM (inactive)	6.11 µM (inactive)	25.2 µM (inactive)	6.79 µM (inactive)	2.21 µM (inactive)	4.31 µM (inactive)	13.5 µM (inactive)	19.2 µM (inactive)
CCOC(=O)c1cc(-c2ccc(OC)c(OC)c2)c[nH]1	> 10 µM (inactive)	> 10 µM (inactive)	> 10 µM (inactive)	> 10 µM (inactive)	> 10 µM (inactive)	> 10 µM (inactive)	> 10 µM (inactive)	> 10 µM (inactive)	> 10 µM (inactive)	> 10 µM (inactive)	> 10 µM (inactive)	> 10 µM (inactive)	> 10 µM (inactive)	> 10 µM (inactive)	> 10 µM (inactive)	> 10 µM (inactive)	> 10 µM (inactive)	> 10 µM (inactive)	> 10 µM (inactive)	> 10 µM (inactive)
CC1OC(OC2C(O)COC(OC3C(C)OC(OC4C(OC(=O)[C@]56CCC(C)(C)C[C@@H]5C5=CCC7[C@@]8(C)C[C@H](O)[C@H](OC9OC(CO)C(O)C(O)C9O)[C@@](C)(CO)[C@@H]8CC[C@@]7(C)[C@]5(C)CC6)OCC(O)C4O)C(O)C3OC3OCC(O)C(O)C3O)C2O)C(O)C(O)C1O (some centres undefined)	20.1 µM (inactive)	31.9 µM (inactive)	26.2 µM (inactive)	5.19 µM (inactive)	19.1 µM (inactive)	20.1 µM (inactive)	15.5 µM (inactive)	19.5 µM (inactive)	10.7 µM (inactive)	18.6 µM (inactive)	17.3 µM (inactive)	17.8 µM (inactive)	14.3 µM (inactive)	34.4 µM (inactive)	4.46 µM (inactive)	15.9 µM (inactive)	18.8 µM (inactive)	42.9 µM (inactive)	20.8 µM (inactive)	18.4 µM (inactive)
Cc1ccc(/N=N/NCCCCN)cc1	> 100 µM (inactive)	> 100 µM (inactive)	> 100 µM (inactive)	12.2 µM (inactive)	49.2 µM (inactive)	7.26 µM (inactive)	> 100 µM (inactive)	23.8 µM (inactive)	> 100 µM (inactive)	> 100 µM (inactive)	> 100 µM (inactive)	12.6 µM (inactive)	> 100 µM (inactive)	> 100 µM (inactive)	> 100 µM (inactive)	> 100 µM (inactive)	> 100 µM (inactive)	> 10 µM (inactive)	> 100 µM (inactive)	> 100 µM (inactive)
CCCCC1Cc2cc(O)ccc2-c2n1c1cc(O)ccc1[n+]2C.CCCCC1Cc2cc(O)ccc2-c2n1c1ccc(O)cc1[n+]2C (centres undefined)	27.7 µM (inactive)	19 µM (inactive)	> 100 µM (inactive)	65.6 µM (inactive)	1.49 µM (inactive)	49.1 µM (inactive)	26.5 µM (inactive)	4.05 µM (inactive)	0.476 µM (active)	57.3 µM (inactive)	22.1 µM (inactive)	56 µM (inactive)	31.9 µM (inactive)	19.5 µM (inactive)	18.3 µM (inactive)	34 µM (inactive)	26.8 µM (inactive)	17.7 µM (inactive)	2.59 µM (inactive)	78.7 µM (inactive)
COc1cc2ccc1OCc1cccc(n1)COc1ccc(cc1OC)/C=N\CCNCC/N=C\2	> 100 µM (inactive)	42.5 µM (inactive)	> 100 µM (inactive)	> 100 µM (inactive)	> 100 µM (inactive)	> 100 µM (inactive)	> 100 µM (inactive)	> 100 µM (inactive)	> 100 µM (inactive)	63.4 µM (inactive)	> 100 µM (inactive)	> 100 µM (inactive)	> 100 µM (inactive)	> 100 µM (inactive)	> 100 µM (inactive)	> 100 µM (inactive)	> 100 µM (inactive)	> 100 µM (inactive)	> 100 µM (inactive)	> 100 µM (inactive)
FC(F)(F)c1ccc(C2ON=C(c3ccccc3)N2C23CC4CC(CC(C4)C2)C3)cc1 (centres undefined)	> 10 µM (inactive)	> 10 µM (inactive)	> 10 µM (inactive)	–	> 10 µM (inactive)	> 10 µM (inactive)	> 10 µM (inactive)	> 10 µM (inactive)	> 10 µM (inactive)	> 10 µM (inactive)	> 10 µM (inactive)	> 10 µM (inactive)	> 10 µM (inactive)	> 10 µM (inactive)	> 10 µM (inactive)	> 10 µM (inactive)	> 10 µM (inactive)	> 10 µM (inactive)	> 10 µM (inactive)	> 10 µM (inactive)
